The supplement of paper PMC4932681

How the values were obtained:
BT-474 Tam1 [1] = assay: drug sensitivity score (DSS) (DSS (dimensionless)); higher = more sensitive; extreme values may be limits of the assay; settings: 4-OH-tamoxifen in medium 1 µM; 72 h
How it was run: (§1)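 CellTiter-Glo viability was the readout, taken on a PHERAstar and normalised to vehicle-only and positive controls. It was measured after breast cancer cell lines and their resistant derivatives spent 72 h at 37 °C in 384-well plates containing library drugs at five concentrations spanning a 10 000-fold range, with 1 μM of the selecting drug in the medium of resistant lines. From logistic dose–response fits in the Breeze pipeline came drug sensitivity score, relative IC50 (curve midpoint) and top-dose inhibition.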

BT-474 Tam2 [2] = assay: as above; settings: 4-OH-tamoxifen in medium 1 µM; 72 h
How it was run: as §1

BT-474 [3] = assay: as above; settings: 72 h
How it was run: as §1

MCF-7 Tam1 [4] = assay: as above; settings: 4-OH-tamoxifen in medium 1 µM; 72 h
How it was run: as §1

MCF-7 [5] = assay: as above; settings: 72 h
How it was run: as §1

T-47D Tam1 [6] = assay: as above; settings: 4-OH-tamoxifen in medium 1 µM; 72 h
How it was run: as §1

T-47D Tam2 [7] = assay: as above; settings: 4-OH-tamoxifen in medium 1 µM; 72 h
How it was run: as §1

T-47D [8] = assay: as above; settings: 72 h
How it was run: as §1

ZR-75-1 Tam1 [9] = assay: as above; settings: 4-OH-tamoxifen in medium 1 µM; 72 h
How it was run: as §1

ZR-75-1 Tam2 [10] = assay: as above; settings: 4-OH-tamoxifen in medium 1 µM; 72 h
How it was run: as §1

ZR-75-1 [11] = assay: as above; settings: 72 h
How it was run: as §1

BT-474 Tam1 [12] = assay: relative IC50 (midpoint of fitted logistic curve, plateau may be below 50% inhibition; CellTiter-Glo viability); higher = less potent; settings: 4-OH-tamoxifen in medium 1 µM; 72 h
How it was run: as §1

BT-474 Tam2 [13] = assay: as above; settings: 4-OH-tamoxifen in medium 1 µM; 72 h
How it was run: as §1

BT-474 [14] = assay: as above; settings: 72 h
How it was run: as §1

MCF-7 Tam1 [15] = assay: as above; settings: 4-OH-tamoxifen in medium 1 µM; 72 h
How it was run: as §1

MCF-7 [16] = assay: as above; settings: 72 h
How it was run: as §1

T-47D Tam1 [17] = assay: as above; settings: 4-OH-tamoxifen in medium 1 µM; 72 h
How it was run: as §1

T-47D Tam2 [18] = assay: as above; settings: 4-OH-tamoxifen in medium 1 µM; 72 h
How it was run: as §1

T-47D [19] = assay: as above; settings: 72 h
How it was run: as §1

ZR-75-1 Tam1 [20] = assay: as above; settings: 4-OH-tamoxifen in medium 1 µM; 72 h
How it was run: as §1

ZR-75-1 Tam2 [21] = assay: as above; settings: 4-OH-tamoxifen in medium 1 µM; 72 h
How it was run: as §1

ZR-75-1 [22] = assay: as above; settings: 72 h
How it was run: as §1

Row | relative IC50 (BT-474 Tam1 [12]) | relative IC50 (BT-474 Tam2 [13]) | relative IC50 (BT-474 [14]; 4-OH-tamoxifen in medium 0 µM) | relative IC50 (BT-474 [14]; 4-OH-tamoxifen in medium 1 µM) | relative IC50 (MCF-7 Tam1 [15]) | relative IC50 (MCF-7 [16]; 4-OH-tamoxifen in medium 0 µM) | relative IC50 (MCF-7 [16]; 4-OH-tamoxifen in medium 1 µM) | relative IC50 (T-47D Tam1 [17]) | relative IC50 (T-47D Tam2 [18]) | relative IC50 (T-47D [19]; 4-OH-tamoxifen in medium 0 µM) | relative IC50 (T-47D [19]; 4-OH-tamoxifen in medium 1 µM) | Structure (SMILES) | drug sensitivity score (BT-474 Tam1 [1]) | drug sensitivity score (BT-474 Tam2 [2]) | drug sensitivity score (BT-474 [3]; 4-OH-tamoxifen in medium 0 µM) | drug sensitivity score (BT-474 [3]; 4-OH-tamoxifen in medium 1 µM) | drug sensitivity score (MCF-7 Tam1 [4]) | drug sensitivity score (MCF-7 [5]; 4-OH-tamoxifen in medium 0 µM) | drug sensitivity score (MCF-7 [5]; 4-OH-tamoxifen in medium 1 µM) | drug sensitivity score (T-47D Tam1 [6]) | drug sensitivity score (T-47D Tam2 [7]) | drug sensitivity score (T-47D [8]; 4-OH-tamoxifen in medium 0 µM) | drug sensitivity score (T-47D [8]; 4-OH-tamoxifen in medium 1 µM) | drug sensitivity score (ZR-75-1 Tam1 [9]) | drug sensitivity score (ZR-75-1 Tam2 [10]) | drug sensitivity score (ZR-75-1 [11]; 4-OH-tamoxifen in medium 0 µM) | drug sensitivity score (ZR-75-1 [11]; 4-OH-tamoxifen in medium 1 µM) | relative IC50 (ZR-75-1 Tam1 [20]) | relative IC50 (ZR-75-1 Tam2 [21]) | relative IC50 (ZR-75-1 [22]; 4-OH-tamoxifen in medium 0 µM) | relative IC50 (ZR-75-1 [22]; 4-OH-tamoxifen in medium 1 µM)
1 | 20.9 nM | 30.2 nM | 27.5 nM | 47.1 nM | 11.4 nM | 7.36 nM | 7.62 nM | 2.91 nM | 7.49 nM | 11.6 nM | 11.9 nM | CC(C)n1nc(-c2ccc3oc(N)nc3c2)c2c(N)ncnc21 [INK128] | 13.2 | 7.32 | 5.72 | 9.54 | 7.07 | 18.9 | 13.6 | 16.9 | 8.98 | 15.4 | 8.51 | 15.1 | 17.5 | 16.1 | 13.6 | 4.81 nM | 6.49 nM | 6.13 nM | 6.56 nM
2 | 218 nM | 337 nM | 71.1 nM | 171 nM | 57 nM | 2.65 nM | 49.6 nM | 526 nM | 811 nM | 47.5 nM | 299 nM | COCC[n+]1c2c(n(Cc3cnccn3)c1C)C(=O)c1ccccc1C2=O [YM155] | 19.6 | 16.6 | 25.6 | 20.9 | 25.8 | 43 | 26.5 | 14.2 | 11.4 | 27.1 | 17.6 | 15.3 | 16.2 | 28.5 | 19 | 454 nM | 358 nM | 36.5 nM | 202 nM
3 | 102 nM | 187 nM | 245 nM | 157 nM | 1970 nM | 161 nM | 140 nM | 295 nM | 429 nM | 278 nM | 3620 nM | O=C(Nc1cccnc1)N1CCC(Cc2cccc(Oc3ccc(C(F)(F)F)cn3)c2)CC1 [PF-3845] | 23.7 | 20.4 | 18.1 | 21.2 | 9.98 | 16.5 | 19.2 | 17.5 | 13.7 | 11.6 | 10.7 | 18.7 | 18.8 | 10.2 | 19.7 | 218 nM | 233 nM | 725 nM | 179 nM
4 | > 10000 nM | > 10000 nM | > 10000 nM | > 10000 nM | > 10000 nM | > 10000 nM | > 10000 nM | > 10000 nM | > 10000 nM | > 10000 nM | > 10000 nM | Clc1ccc(C(c2ccccc2Cl)C(Cl)Cl)cc1 (centres undefined) [Mitotane] | 0 | 0 | 0 | 0 | 0 | 0 | 0 | 0 | 0 | 0 | 0 | 0 | 0 | 0 | 0 | > 10000 nM | > 10000 nM | > 10000 nM | > 10000 nM

More lines, now with the values behind:

Row | Structure (SMILES) | relative IC50 (BT-474 Tam1 [12]) | relative IC50 (BT-474 Tam2 [13]) | relative IC50 (BT-474 [14]; 4-OH-tamoxifen in medium 0 µM) | relative IC50 (BT-474 [14]; 4-OH-tamoxifen in medium 1 µM) | relative IC50 (MCF-7 Tam1 [15]) | relative IC50 (MCF-7 [16]; 4-OH-tamoxifen in medium 0 µM) | relative IC50 (MCF-7 [16]; 4-OH-tamoxifen in medium 1 µM) | relative IC50 (T-47D Tam1 [17]) | relative IC50 (T-47D Tam2 [18]) | relative IC50 (T-47D [19]; 4-OH-tamoxifen in medium 0 µM) | relative IC50 (T-47D [19]; 4-OH-tamoxifen in medium 1 µM) | drug sensitivity score (BT-474 Tam1 [1]) | drug sensitivity score (BT-474 Tam2 [2]) | drug sensitivity score (BT-474 [3]; 4-OH-tamoxifen in medium 0 µM) | drug sensitivity score (BT-474 [3]; 4-OH-tamoxifen in medium 1 µM) | drug sensitivity score (MCF-7 Tam1 [4]) | drug sensitivity score (MCF-7 [5]; 4-OH-tamoxifen in medium 0 µM) | drug sensitivity score (MCF-7 [5]; 4-OH-tamoxifen in medium 1 µM) | drug sensitivity score (T-47D Tam1 [6]) | drug sensitivity score (T-47D Tam2 [7]) | drug sensitivity score (T-47D [8]; 4-OH-tamoxifen in medium 0 µM) | drug sensitivity score (T-47D [8]; 4-OH-tamoxifen in medium 1 µM) | drug sensitivity score (ZR-75-1 Tam1 [9]) | drug sensitivity score (ZR-75-1 Tam2 [10]) | drug sensitivity score (ZR-75-1 [11]; 4-OH-tamoxifen in medium 0 µM) | drug sensitivity score (ZR-75-1 [11]; 4-OH-tamoxifen in medium 1 µM) | relative IC50 (ZR-75-1 Tam1 [20]) | relative IC50 (ZR-75-1 Tam2 [21]) | relative IC50 (ZR-75-1 [22]; 4-OH-tamoxifen in medium 0 µM) | relative IC50 (ZR-75-1 [22]; 4-OH-tamoxifen in medium 1 µM)
5 | Cc1cccc(-c2nn3c(c2-c2ccnc4ccc(C(N)=O)cc24)CCC3)n1 | > 1000 nM | > 1000 nM | > 1000 nM | > 1000 nM | > 1000 nM | > 1000 nM | – | > 1000 nM | > 1000 nM | > 1000 nM | > 1000 nM | 0 | 0 | 0 | 0 | 0 | 0 | 0.246 | 0 | 0 | 0 | 0 | 0 | 0 | 0 | 0 | > 1000 nM | > 1000 nM | > 1000 nM | > 1000 nM
6 | C[C@@H]1C=C2C(=O)O[C@@H]3CC[C@H](C1)[C@]23O [Galiellalactone] | 19100 nM | > 50000 nM | > 50000 nM | 17300 nM | > 50000 nM | 7000 nM | > 50000 nM | 8360 nM | 13800 nM | 20000 nM | 30100 nM | 2.19 | 0 | 0 | 2.65 | 0 | 6.75 | 0.391 | 3.53 | 2.32 | 2.52 | 1.56 | 0 | 0 | 0 | 0 | > 50000 nM | > 50000 nM | > 50000 nM | > 50000 nM
7 | O=NN(CCCl)C(=O)NCCCl [Carmustine] | > 10000 nM | > 10000 nM | > 10000 nM | > 10000 nM | > 10000 nM | > 10000 nM | > 10000 nM | > 10000 nM | > 10000 nM | > 10000 nM | > 10000 nM | 0 | 0 | 0 | 0 | 0 | 0 | 0 | 0 | 0 | 0 | 0 | 0 | 0 | 0 | 0 | > 10000 nM | > 10000 nM | > 10000 nM | > 10000 nM
